One data set deals with E. cloacae EB 131. In words: β-Lactamase inhibition activity against resistant bacteria (MIC of ceftazidime without and with Ia). The format is cell-based. The note with it: Enterobacter cloacae, EB131, enzyme Type 1 Ceph'ase, read-out: MIC, CAZ alone.
For the next data set, the system named is K. pneumoniae KL 140. The data set is described as above. The format is cell-based. Particulars: Klebsiella pneumoniae, KL140, enzyme CAZ-ase, read-out: MIC, CAZ alone.
A further data set deals with E. coli EC 225. The description is as above. The format is cell-based. The note with it: Escherichia coli, EC225, enzyme TEM-5, read-out: MIC, CAZ alone.
For another data set, the system named is E. coli EC 227. The description is as above. It counts as cell-based. The note with it: Escherichia coli, EC227, enzyme CAZ-ase, read-out: MIC, CAZ alone.
The test system of a further data set is E. coli EC 228. The description is as above. It counts as cell-based. The note with it: Escherichia coli, EC228, enzyme CAZ-ase, read-out: MIC, CAZ alone.
Another data set relates to K. pneumoniae KL 141. Described as above. It counts as cell-based. Particulars: Klebsiella pneumoniae, KL141, enzyme CAZ-ase, read-out: MIC, CAZ alone.
The target in data set [1] is T1, β-Lactamase from Enterobacter cloacae (Enterobacter cloacae, UniProt P05364).
T1 construct: bacterial β-lactamases isolated from Enterobacter cloacae and Escherichia coli; host or cells: Enterobacter cloacae (enzyme isolated, cell free)
T1 sequence (P05364 21-381): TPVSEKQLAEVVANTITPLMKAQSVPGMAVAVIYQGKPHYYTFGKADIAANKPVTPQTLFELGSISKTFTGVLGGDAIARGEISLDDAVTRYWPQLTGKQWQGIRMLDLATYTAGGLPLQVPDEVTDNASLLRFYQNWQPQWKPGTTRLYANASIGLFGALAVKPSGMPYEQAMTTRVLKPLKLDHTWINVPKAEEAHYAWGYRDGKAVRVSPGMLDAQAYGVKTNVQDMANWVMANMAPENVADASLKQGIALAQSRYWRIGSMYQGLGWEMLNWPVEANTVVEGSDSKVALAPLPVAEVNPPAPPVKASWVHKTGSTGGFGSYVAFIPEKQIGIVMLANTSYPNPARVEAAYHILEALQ
In words: β-Lactamase inhibition against isolated (cell free) enzymes, nitrocefin method. The format is biochemical. Particulars: 37° C., 15 min preincubation of enzyme and inhibitor. The source says:
(§1) Moreover, all tested ceftazidime resistant Gram-negative pathogens became susceptible to a combination of ceftazidime and the compounds according to the invention. Thus, these compounds are also very potent β-lactamase inhibitors. The very high activity as β-lactamase inhibitors of the compounds I according to the invention was also observed with isolated bacterial enzymes in the nitrocefin test (R. Reimer, Methodicum Chimicum: Antibiotics, Vitamins and Hormons; F. Korte, M. Goto, eds., Thieme, Stuttgart, 1977, p.11, E. Wasielewski, Arzneimittel, Vol. 4; Chemotherapeutica, Part 1, Verlag Chemie, Weinheim 1972).
(§2) IC50 values were determined in a 1 cm UV cell at 37° C. after a 15 min preincubation period of enzyme and the inhibitor.

In data set [2] the target is T2, Penicillinase from E. coli TEM 1 (Escherichia coli, UniProt P62593).
T2 construct: bacterial β-lactamases isolated from Enterobacter cloacae and Escherichia coli; host or cells: Escherichia coli (enzyme isolated, cell free)
T2 sequence (P62593 24-286 limits assumed): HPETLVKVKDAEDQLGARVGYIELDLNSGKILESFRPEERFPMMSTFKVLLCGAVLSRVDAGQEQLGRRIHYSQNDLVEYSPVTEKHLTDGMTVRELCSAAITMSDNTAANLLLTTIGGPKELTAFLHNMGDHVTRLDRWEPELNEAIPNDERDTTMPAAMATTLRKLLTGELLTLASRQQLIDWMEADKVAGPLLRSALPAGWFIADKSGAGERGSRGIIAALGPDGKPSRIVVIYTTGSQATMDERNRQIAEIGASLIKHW
The data set is described as above. It counts as biochemical.
Source text: as §1, §2

A short description of data set [3]: Stability in phosphate buffer (half-life of hydrolysis, UV method). It counts as physicochemical. The note with it: for half-life: physiological phosphate buffer pH 7.4 and 37° C., UV method.
The nature of data set [4]: Oral activity: plasma level and half-life in mice after oral application. It counts as in vivo. Particulars: mouse, dose 25 mg per kg, potassium salt.
The test system of another data set is Sacharomyces cerevisiae. As to the kind of experiment: Cytotoxicity, agar diffusion method. It counts as cell-based. Particulars: 1.0 mg, yeast and mold agar, 16 hrs at 30° C. How it is done:
Sterile PP dishes of 8.5 cm diameter containing 10 ml of yeast and mold agar were used. Cytotoxicity was recorded after a 16 hrs incubation period at 30° C. (inoculum approx. 10^5 cells).
On the technique in general: Agar diffusion results depend on both activity and mobility in agar.

For data set [5], the system named is Pseudomonas aer. resistant. As to the kind of experiment: In vitro antibacterial activity, plate test (inhibition diameter). The note with it: 10 μg, Difco Nutrient Agar, 18 hrs at 37° C. The format is cell-based, Pseudomonas aeruginosa. On the procedure: (§3) The tests were carried out in sterile polypropylene dishes (diameter 8.5 cm) containing 10 ml of Difco Nutrient Agar. Inhibition was recorded after 18 hrs at 37° C. (inoculum ca. […] cells).

Data set [6] deals with Pseudomonas aer. DSM 1117. The data set is described as above. The format is cell-based, Pseudomonas aeruginosa. Particulars: 10 μg, Difco Nutrient Agar, 18 hrs at 37° C. How it is done:
as §3

The test system of data set [7] is Enterobacter cloacae DSM 30054. The description is as above. It counts as cell-based. The note with it: 10 μg, Difco Nutrient Agar, 18 hrs at 37° C. On the procedure: as §3
For another data set, the system named is Enterococcus. Described as above. It counts as cell-based. Particulars: 10 μg, Difco Nutrient Agar, 18 hrs at 37° C. On the procedure:
as §3

Another data set relates to Escherichia coli TEM 1. The data set is described as above. The format is cell-based. Particulars: 10 μg, Difco Nutrient Agar, 18 hrs at 37° C. How it is done: as §3
The subject of data set [8] is Escherichia coli DSM 1103. The description is as above. The format is cell-based. The note with it: 10 μg, Difco Nutrient Agar, 18 hrs at 37° C. On the procedure:
as §3

A further data set concerns Staph. aureus DSM 1104. The data set is described as above. Particulars: 10 μg, Difco Nutrient Agar, 18 hrs at 37° C. The format is cell-based. On the procedure:
as §3

In another data set the test system is Staph. aureus resistant. The description is as above. The format is cell-based. The note with it: 10 μg, Difco Nutrient Agar, 18 hrs at 37° C. On the procedure:
as §3

Another data set relates to Staph. aureus 25768. The description is as above. It counts as cell-based. Particulars: 10 μg, Difco Nutrient Agar, 18 hrs at 37° C. How it is done: as §3
For a further data set, the system named is Staph. aureus Innsbruck. The data set is described as above. The note with it: 10 μg, Difco Nutrient Agar, 18 hrs at 37° C. The format is cell-based. On the procedure: as §3

Some results are limits rather than exact numbers.

As usually defined, the MIC is the smallest concentration in the dilution series that meets the test's criterion for growth inhibition. In general, IC50 refers to the concentration that inhibits the measured activity by half. For orientation: half-life means how long it takes for the measured level to halve.

Consider `CC(C)(O/N=C(\C(=O)N[C@@H]1C(=O)N2C(C(=O)[O-])=C(C[n+]3ccccc3)CS[C@H]12)c1csc(N)n1)C(=O)O` [CAZ, ceftazidime], for which the minimal inhibitory concentration (MIC) is more than 64 µg/mL in the data set on E. cloacae EB 131; more than 64 µg/mL in the data set with K. pneumoniae KL 140; 64 µg/mL in the data set with E. coli EC 225; more than 64 µg/mL in the data set on E. coli EC 227; 16 µg/mL in the data set with E. coli EC 228; more than 64 µg/mL in the data set with K. pneumoniae KL 141.

`COCSC1=C(C(=O)O)N2C(=O)[C@H]([C@@H](C)O)[C@H]2[C@H]1C` [Ia, Potassium (4R,5S,6S)-6-((1′R)-hydroxyethyl)-3-(methoxymethylthio)-4-methyl-7-oxo-1-azabicyclo[3.2.0]hept-2-ene-2-carboxylate]: the half-inhibitory concentration (IC50) is 4 nM in data set [1] and 200 nM in data set [2]. Further, the half-life in data set [3] was 50 h; in data set [4] (serum, 25 mg/kg, read-out: Approximative serum half-life), 0.417 h. In data set [4] (plasma), the concentration at 10 min was determined as 5600 ng/mL.

Turning to `CC(O)C1C(=O)N2C(C(=O)O)=C(SCOCCN)C(C)C12` (centres unmarked) [Ib], the “inhibition diameter (cytotoxicity)” value in the data set with Sacharomyces cerevisiae was determined as 0 mm. Moreover, the half-inhibitory concentration (IC50) is 8.5 nM in [1] and 550 nM in data set [2]. For the same compound, the inhibition diameter in data set [5] is 17 mm; in data set [6], 27 mm; in data set [7], 26 mm; in the data set on Enterococcus, 21 mm; in the data set on Escherichia coli TEM 1, 33 mm; in data set [8], 30 mm. For the same compound, the inhibition diameter came out at 39 mm in the data set with Staph. aureus DSM 1104, 35 mm in the data set with Staph. aureus resistant, 28 mm with Staph. aureus 25768 and 9 mm in the data set with Staph. aureus Innsbruck. In addition, the half-life in data set [3] is 50 h.

Consider `CC(O)C1C(=O)N2C(C(=O)O)=C(SCOCCNC=N)C(C)C12` [Ic, (4R,5S,6S)-3-((2-(Formimidoylamino)ethoxv)methylthio)-((1′R)-hydroxyethyl)-4-methyl-7-oxo-1-azabicyclo[3.2.0]hept-2-ene-2-carboxylic acid], for which the inhibition diameter in data set [5] turned out to be 13 mm; in data set [6], 25 mm; in data set [7], 25 mm; in the data set with Enterococcus, 21 mm; in the data set with Escherichia coli TEM 1 it was 33 mm; in data set [8], 30 mm. The inhibition diameter came out at 39 mm in the data set on Staph. aureus DSM 1104, 35 mm in the data set on Staph. aureus resistant, 26 mm in the data set with Staph. aureus 25768 and 8 mm in the data set on Staph. aureus Innsbruck. Besides, in data set [3], the half-life was 35 h.

Compound `CC(O)C1C(=O)N2C(C(=O)O)=C(SCOC(C)(C)CN)C(C)C12` [Id, (4R,5S,6S)-3-((2-amino-1,1-dimethylethoxy)methylthio)-6-((1′R)-hydroxyethyl)-4-methyl-7-oxo-1-azabicyclo[3.2.0]hept-2-ene-2-carboxylic acid] gave a half-life in [3] of 50 h.

Turning to `CC(=O)NCSC1=C(C(=O)O)N2C(=O)[C@H]([C@@H](C)O)[C@H]2[C@H]1C` [Ie, Potassium (4R,5S,6S)-3-(acetamidomethylthio)-((1′R)-hydroxyethyl)-4-methyl-7-oxo-1-azabicyclo[3.2.0]hept-2-ene-2-carboxylate], the “inhibition diameter (cytotoxicity)” value in the data set on Sacharomyces cerevisiae came to 0 mm. Besides, the IC50 in data set [1] stood at 6 nM; in [2], 300 nM. Further, the inhibition diameter in [6] stood at 16 mm; in data set [7], 27 mm; with Enterococcus it was 18 mm; in the data set on Escherichia coli TEM 1 it was 34 mm; in data set [8], 32 mm; with Staph. aureus DSM 1104, 36 mm. The inhibition diameter with Staph. aureus resistant is 32 mm; with Staph. aureus 25768 it was 27 mm. This compound also had a half-life in data set [3] of 40 h.

Turning to `CC(O)C1C(=O)N2C(C(=O)O)=C(SCNC(=O)CN)C(C)C12` [If, (4R,5S,6S)-3-((2-Aminoacetamido)methylthio-6-((1′R)-hydroxyethyl)-4-methyl-7-oxo-1-azabicyclo[3.2.0]hept-2-ene-2-carboxylic acid], the “inhibition diameter (cytotoxicity)” value in the data set with Sacharomyces cerevisiae amounted to 0 mm. In addition, the inhibition diameter in data set [5] was found to be 14 mm; in [6], 18 mm; in data set [7], 23 mm; in the data set on Enterococcus, 20 mm; with Escherichia coli TEM 1, 33 mm; in data set [8], 27 mm. For the same compound, the inhibition diameter is recorded as 33 mm in the data set with Staph. aureus DSM 1104, 30 mm with Staph. aureus resistant, 25 mm in the data set with Staph. aureus 25768 and 12 mm in the data set with Staph. aureus Innsbruck. Also, in [3], the half-life was 16 h.

In data set [3] (buffer, pH 7.4), `CCN1CCN(CSC2=C(C(=O)[O-])N3C(=O)[C@H]([C@@H](C)O)[C@H]3[C@H]2C)C(=O)C1=O.[K+]` [Ig, Potassium (4R,5S,6S)-3-((2,3-dioxo-4-ethyl-piperazinyl)methylthio)-6-((1′R)-hydroxyethyl)-4-methyl-7-oxo-1-azabicyclo[3.2.0]hept-2-ene-2-carboxylate] returned a half-life of hydrolysis of 42 h.

The record behind these values is patent US20010031749A1, “Novel C-2 S/O-and S/N formaldehyde Acetal Derivatives of Carbapenem-3-carboxylic acids and their use as antibiotics and beta-lactamase inhibitors” (priority 1998, published 2001).
